Experiments:
[1] = test system: Human plasma; assay: Human plasma anticoagulation, activated partial thromboplastin time (APTT); type: biochemical; conditions: concentration required to double the APTT, linear extrapolation
Experimental: (§1) Dog plasma and rat plasma is obtained from conscious mixed-breed hounds (either sex, Hazelton-LRE, Kalamazoo, Mich., U.S.A.) or from anesthetized male Sprague-Dawley rats (Harlan Sprague-Dawley, Inc., Indianapolis, Ind., U.S.A.) by venipuncture into 3.8 percent citrate. Fibrinogen is prepared from in-date ACD human blood as the fraction I-2 according to previous procedures and specifications. Smith, Biochem. J., 185, 1-11 (1980); and Smith, et al., Biochemistry, 11, 2958-2967 (1972). Human fibrinogen is also purchased as 98 percent pure/plasmin free from American Diagnostica, Greenwich, Conn. Coagulation reagents ACTIN, Thromboplastin, and Human plasma are from Baxter Healthcare Corp., Dade Division, Miami, Fla. Bovine thrombin from Parke-Davis ([…], Mich.) is used for coagulation assays in plasma.
(§2) Coagulation assay procedures are as previously described. Smith, et al., Thrombosis Research, 50, 163-174 (1988). A CoAScreener coagulation instrument (American LABor, Inc.) is used for all coagulation assay measurements. The prothrombin time (PT) is measured by adding 0.05 mL saline and 0.05 mL Thromboplastin-C reagent to 0.05 mL test plasma. The activated partial thromboplastin time (APTT) is measured by incubation of 0.05 mL test plasma with 0.05 mL Actin reagent for 120 seconds followed by 0.05 mL CaCl2 (0.02M). The thrombin time (TT) is measured by adding 0.05 mL saline and 0.05 mL thrombin (10 NIH units/mL) to 0.05 mL test plasma. The compounds of formula I are added to human or animal plasma over a wide range of concentrations to determine prolongation effects on the APTT, PT, and TT assays. Linear extrapolations are performed to estimate the concentrations required to double the clotting time for each assay.

[2] = target: T1, Plasmin (Homo sapiens, UniProt P00747); assay: Serine protease selectivity, chromogenic substrate (Kass), plasmin; type: biochemical; conditions: substrate H-D-Val-Leu-Lys-p-nitroanilide
T1 construct: Human plasmin is purchased; purchased Boehringer Mannheim, Indianapolis, Ind
T1 sequence (P00747 581-810 limits assumed): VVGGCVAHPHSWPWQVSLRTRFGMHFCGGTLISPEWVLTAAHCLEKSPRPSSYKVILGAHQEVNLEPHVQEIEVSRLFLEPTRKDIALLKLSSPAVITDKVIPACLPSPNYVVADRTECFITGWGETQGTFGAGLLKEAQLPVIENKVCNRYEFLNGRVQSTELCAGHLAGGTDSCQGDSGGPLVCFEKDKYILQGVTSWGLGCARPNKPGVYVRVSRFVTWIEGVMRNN
T1 sequence (P00747 97-580 partner limits assumed): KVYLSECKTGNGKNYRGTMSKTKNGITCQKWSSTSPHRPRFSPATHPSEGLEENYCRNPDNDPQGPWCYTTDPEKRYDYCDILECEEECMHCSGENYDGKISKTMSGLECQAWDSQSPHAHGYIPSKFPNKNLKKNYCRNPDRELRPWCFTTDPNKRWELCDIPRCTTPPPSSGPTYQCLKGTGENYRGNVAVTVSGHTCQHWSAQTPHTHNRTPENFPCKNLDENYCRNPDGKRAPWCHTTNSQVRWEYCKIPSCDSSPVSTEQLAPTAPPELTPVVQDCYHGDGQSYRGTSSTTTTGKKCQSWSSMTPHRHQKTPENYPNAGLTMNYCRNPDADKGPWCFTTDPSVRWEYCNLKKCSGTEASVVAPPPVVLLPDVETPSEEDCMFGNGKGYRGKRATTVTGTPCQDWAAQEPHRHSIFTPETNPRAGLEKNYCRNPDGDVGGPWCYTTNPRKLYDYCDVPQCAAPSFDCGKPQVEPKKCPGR
Experimental: (§3) The assay is carried out by mixing 50 μL buffer (0.03M Tris, 0.15M NaCl, pH 7.4) with 25 μL of bovine thrombin or human thrombin solution (0.21 mg/mL of thrombostat bovine thrombin, Parke-Davis, or purified human thrombin, Enzyme Research Laboratories, South Bend, Ind., at about 8 NIH units/mL, in the same buffer) and 25 μL of test compound in a solvent (in 50% aqueous methanol, v:v). The 150 μL of an aqueous solution of the chromogenic substrate (at 0.25 mg/mL) are added and the rates of hydrolysis of the substrate are measured by monitoring the reactions at 405 nm for the release of p-nitroaniline. Standard curves are constructed by plotting free thrombin concentration against hydrolysis rate. The hydrolysis rates observed with test compounds are then converted to "free thrombin" values in the respective assays by use of the standard curves. The bound thrombin (bound to test compound) is calculated by subtracting the amount of free thrombin observed in each assay from the known initial amount of thrombin used in the assay. The amount of free inhibitor in each assay is calculated by subtracting the number of moles of bound thrombin from the number of moles of added inhibitor (test compound).
(§4) Kass is calculated for a range of concentrations of test compounds and the mean value is reported in units of liter per mole.
(§5) By substantially following the procedures described above for human thrombin, and using other human blood coagulation system serine proteases and proteases of the fibrinolytic system with the appropriate chromogenic substrates, identified below, selectivity of the compounds of the present invention with respect to the coagulation factor serine proteases and with respect to the fibrinolytic system serine proteases are evaluated as well as their substantial lack of interference with serine proteases of the fibrinolytic system. Thrombin inhibitors preferably should spare fibrinolysis induced by urokinase, tissue plasminogen activator (t-PA) and streptokinase. This would be important to the therapeutic use of such agents as an adjunct to streptokinase, t-PA or urokinase thrombolytic therapy and to the use of such agents as an endogenous fibrinolysis-sparing (with respect to t-PA and urokinase) antithrombotic agent. In addition to the lack of interference with the amidase activity of the fibrinolytic proteases, such fibrinolytic system sparing can be studied by the use of human plasma clots and their lysis by the respective fibrinolytic plasminogen activators.
(§6) Human plasmin is purchased from Boehringer Mannheim, Indianapolis, Ind.; nt-PA is purchased as single chain activity reference from American Diagnostica, Greenwich, Conn.; modified-t-PA6 (mt-PA6) is prepared at Eli Lilly and Company by procedure known in the art (See, Burck, et al., J. Biol. Chem., 265, […] (1990). Plasmin chromogenic substrate H-D-Val-Leu-Lys-p-nitroanilide and tissue plasminogen activator (t-PA) substrate H-D-Ile-Pro-Arg-p-nitroanilide are purchased from Kabi Vitrum, Stockholm, Sweden.

[3] = test system: Human plasma; assay: Human plasma anticoagulation, prothrombin time (PT); type: biochemical; conditions: concentration required to double the PT, linear extrapolation
Experimental: as §1, §2

[4] = target: Human Thrombin (Homo sapiens, UniProt P00734); assay: Inhibition of amidase activity of thrombin (Kass); type: biochemical; conditions: apparent association constant, mean over a range of concentrations
Experimental: as §3
The Kass value is the hypothetical equilibrium constant for the reaction between thrombin and the test compound (I). [drawing 54]
as §4

[5] = target: T2, t-PA (Homo sapiens, UniProt P00750); assay: Serine protease selectivity, chromogenic substrate (Kass), t-PA; type: biochemical; conditions: substrate H-D-Ile-Pro-Arg-p-nitroanilide
T2 construct: purchased American Diagnostica, Greenwich, Conn
T2 sequence (P00750 36-562): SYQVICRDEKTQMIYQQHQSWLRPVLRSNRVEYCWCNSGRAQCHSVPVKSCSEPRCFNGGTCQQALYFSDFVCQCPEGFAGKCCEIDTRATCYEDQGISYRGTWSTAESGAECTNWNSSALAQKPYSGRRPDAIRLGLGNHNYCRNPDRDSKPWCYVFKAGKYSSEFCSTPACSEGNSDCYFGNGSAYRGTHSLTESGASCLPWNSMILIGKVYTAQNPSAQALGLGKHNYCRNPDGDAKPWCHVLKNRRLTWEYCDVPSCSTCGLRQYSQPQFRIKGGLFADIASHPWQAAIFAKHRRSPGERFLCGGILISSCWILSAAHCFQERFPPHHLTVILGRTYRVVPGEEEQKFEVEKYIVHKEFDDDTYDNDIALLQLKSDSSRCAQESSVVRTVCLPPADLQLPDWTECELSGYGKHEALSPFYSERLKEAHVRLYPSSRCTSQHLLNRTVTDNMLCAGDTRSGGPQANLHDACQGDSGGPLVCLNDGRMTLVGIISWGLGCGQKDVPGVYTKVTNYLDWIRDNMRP
Experimental: as §3, §4, §5, §6

[6] = target: T3, Trypsin (Bos taurus, UniProt P00760); assay: Serine protease selectivity, chromogenic substrate (Kass), trypsin; type: biochemical, bovine; conditions: substrate N-Benzoyl-Phe-Val-Arg-p-nitroanilide
T3 construct: Bovine trypsin is purchased; purchased Worthington Biochemicals, Freehold, N.J
T3 sequence (P00760 24-246): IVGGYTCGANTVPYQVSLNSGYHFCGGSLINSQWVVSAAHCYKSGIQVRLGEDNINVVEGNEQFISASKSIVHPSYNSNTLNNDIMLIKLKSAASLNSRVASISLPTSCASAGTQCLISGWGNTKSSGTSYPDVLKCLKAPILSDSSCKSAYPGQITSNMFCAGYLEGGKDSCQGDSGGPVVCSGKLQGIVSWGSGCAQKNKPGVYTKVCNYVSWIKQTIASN
Experimental: as §3, §4, §5
(§7) Human factors X, Xa, IXa, XIa, and XIIa are purchased from Enzyme Research Laboratories, South Bend, Ind.; human urokinase from Leo Pharmaceuticals, Denmark; and recombinant activated Protein C (aPC) is prepared at Eli Lilly and Co. substantially according to U.S. Pat. No. 4,981,952. Chromogenic substrates: N-Benzoyl-Ile-Glu-Gly-Arg-p-nitroanilide (for factor Xa); N-Cbz-D-Arg-Gly-Arg-p-nitroanilide (for factor IXa assay as the factor Xa substrate); Pyroglutamyl-Pro-Arg-p-nitroanilide (for Factor XIa and for aPC); H-D-Pro-Phe-Arg-p-nitroanilide (for factor XIIa); and Pyroglutamyl-Gly-Arg-p-nitroanilide (for urokinase); are purchased from KabiVitrum, Stockholm, Sweden, or from Midwest Biotech, Fishers, Ind. Bovine trypsin is purchased from Worthington Biochemicals, Freehold, N.J., and human plasma kallikrein from Kabi Vitrum, Stockholm, Sweden. Chromogenic substrate H-D-Pro-Phe-Arg-p-nitroanilide for plasma kallikrein is purchased from Kabi Vitrum, Stockholm, Sweden. N-Benzoyl-Phe-Val-Arg-p-nitroanilide, the substrate for human thrombin and for trypsin, is synthesized according to procedures described above for the compounds of the present invention, using known methods of peptide coupling from commercially available reactants or purchased from Midwest Biotech, Fishers, Ind.

[7] = target: T4, factor Xa (Homo sapiens, UniProt P00742); assay: Serine protease selectivity, chromogenic substrate (Kass), factor Xa; type: biochemical; conditions: substrate N-Benzoyl-Ile-Glu-Gly-Arg-p-nitroanilide
T4 construct: Human factors X, Xa, IXa, XIa, and XIIa are purchased; purchased Enzyme Research Laboratories, South Bend, Ind
T4 sequence (P00742 235-488 limits assumed): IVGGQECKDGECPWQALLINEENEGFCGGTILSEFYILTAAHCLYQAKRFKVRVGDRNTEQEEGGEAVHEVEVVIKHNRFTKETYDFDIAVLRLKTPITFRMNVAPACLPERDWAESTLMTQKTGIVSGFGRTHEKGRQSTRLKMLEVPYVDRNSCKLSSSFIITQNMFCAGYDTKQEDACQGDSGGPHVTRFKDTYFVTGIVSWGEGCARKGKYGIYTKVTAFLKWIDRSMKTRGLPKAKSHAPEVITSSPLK
T4 sequence (P00742 41-179 partner limits assumed): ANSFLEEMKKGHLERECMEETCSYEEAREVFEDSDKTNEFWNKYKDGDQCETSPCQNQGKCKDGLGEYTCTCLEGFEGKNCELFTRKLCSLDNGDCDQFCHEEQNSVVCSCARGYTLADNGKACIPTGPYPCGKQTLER
Experimental: as §3, §4, §5, §7

[8] = test system: Human plasma; assay: Human plasma anticoagulation, thrombin time (TT); type: biochemical; conditions: concentration required to double the thrombin time, linear extrapolation
Experimental: as §1, §2

Enzyme Kass, Plasmin [2] [L/mol × 10^6]	Enzyme Kass, Human Thrombin [4]	Enzyme Kass, t-PA [5] [L/mol × 10^6]	Enzyme Kass, Trypsin [6] [L/mol × 10^6]	Enzyme Kass, Xa [7]	Enzyme Kass, Plasmin ([2]; HCl) [L/mol × 10^6]	Enzyme Kass, Human Thrombin ([4]; HCl) [L/mol × 10^6]	Enzyme Kass, t-PA ([5]; HCl) [L/mol × 10^6]	Enzyme Kass, Trypsin ([6]; HCl) [L/mol × 10^6]	Enzyme Kass, Xa ([7]; HCl) [L/mol × 10^6]	Structure (SMILES)	2x Clotting time, APTT [1]	2x Clotting time, PT [3]	2x Clotting time, TT [8] [ng/mL]	2x Clotting time, APTT ([1]; HCl)	2x Clotting time, PT ([3]; HCl)	2x Clotting time, TT ([8]; HCl)
4.8	43 L/mol × 10^6	0.26	180	6.8 L/mol × 10^6	–	–	–	–	–	CCS(=O)(=O)N[C@H](C(=O)N1C[C@@H](Oc2ccccc2)C[C@H]1C(=O)N[C@H](C=O)CCCNC(=N)N)c1ccccc1.Cl (relative stereo) [Example 16, EtSO2 -L-Phg-Pro(4-cis-phenoxy)-ArgH.HCl]	2,400 ng/mL	4,900 ng/mL	120	–	–	–
26	2,200 L/mol × 10^6	1.5	910	32 L/mol × 10^6	–	–	–	–	–	CCS(=O)(=O)N[C@@H](C(=O)N1C[C@@H](Oc2ccccc2)C[C@H]1C(=O)N[C@H](C=O)CCCNC(=N)N)c1ccccc1.Cl (relative stereo) [Example 17, EtSO2 -D-Phg-Pro(4-cis-phenoxy)-ArgH.HCl]	380 ng/mL	1,200 ng/mL	16	–	–	–
0.37	4.5 L/mol × 10^6	0.013	52.2	0.58 L/mol × 10^6	–	–	–	–	–	Cl.Cl.N=C(N)NCCC[C@@H](C=O)NC(=O)[C@@H]1C[C@H](Oc2ccc(C(=O)O)cc2)CN1C(=O)[C@H]1CCCCN1 (relative stereo) [Example 18, D-hPro-Pro(4-cis-(4-COOH-phenoxy))-ArgH.2 HCl]	5,969 ng/mL	10,783 ng/mL	248	–	–	–
0.50	2.8 L/mol × 10^6	0.022	49.3	1.30 L/mol × 10^6	–	–	–	–	–	Cl.Cl.N=C(N)NCCC[C@@H](C=O)NC(=O)[C@@H]1C[C@H](Oc2cccc(C(=O)O)c2)CN1C(=O)[C@H]1CCCCN1 (relative stereo) [Example 19, D-hPro-Pro(4-cis-(3-COOH-phenoxy))-ArgH.2 HCl]	3,497 ng/mL	8,822 ng/mL	345	–	–	–
28.2	957 L/mol × 10^6	2.07	312	4,37 L/mol × 10^6	–	–	–	–	–	CCS(=O)(=O)N[C@H](Cc1ccccc1)C(=O)N1[C@H](C(=O)N[C@H](C=O)CCCNC(=N)N)C[C@@H]2CCCC[C@@H]21.Cl (relative stereo) [Example 23, EtSO2 -D-Phe-cis-Ohi-ArgH.HCl]	312 ng/mL	746 ng/mL	19	–	–	–

Continued, molecule first:

Structure (SMILES)	Enzyme Kass, Plasmin [2] [L/mol × 10^6]	Enzyme Kass, Human Thrombin [4]	Enzyme Kass, t-PA [5] [L/mol × 10^6]	Enzyme Kass, Trypsin [6] [L/mol × 10^6]	Enzyme Kass, Xa [7]	Enzyme Kass, Plasmin ([2]; HCl) [L/mol × 10^6]	Enzyme Kass, Human Thrombin ([4]; HCl) [L/mol × 10^6]	Enzyme Kass, t-PA ([5]; HCl) [L/mol × 10^6]	Enzyme Kass, Trypsin ([6]; HCl) [L/mol × 10^6]	Enzyme Kass, Xa ([7]; HCl) [L/mol × 10^6]	2x Clotting time, APTT [1]	2x Clotting time, PT [3]	2x Clotting time, TT [8] [ng/mL]	2x Clotting time, APTT ([1]; HCl)	2x Clotting time, PT ([3]; HCl)	2x Clotting time, TT ([8]; HCl)
Cl.N=C(N)NCCC[C@@H](C=O)NC(=O)[C@@H]1C[C@@H]2CCCC[C@@H]2N1C(=O)[C@@H](Cc1ccccc1)NCC(=O)O (relative stereo) [Example 24, HOOCCH2 -D-Phe-cis-Ohi-ArgH.HCl]	16.3	1,160 L/mol × 10^6	0.075	424	1.70 L/mol × 10^6	–	–	–	–	–	490 ng/mL	727 ng/mL	11	–	–	–
Cl.Cl.NC(N)=NCCCC(C=O)NC(=O)C1CC(Oc2ccccc2)CN1C(=O)C1NCCC2CCCCC21 [Example 14, L-1-Piq-Pro(4-cis-phenoxy)-ArgH.2 HCl]	0.34	8.7 L/mol × 10^6	0.002	6.2	0.48 L/mol × 10^6	–	–	–	–	–	9,000 ng/mL	18,000 ng/mL	460	–	–	–
Cl.Cl.N=C(N)NCCCC(C=O)NC(=O)C1CC2CCCCC2N1C(=O)C1NCCC2CCCCC21 [Example 21, L-1-cis-Piq-cis-Ohi-ArgH.2 HCl]	–	–	–	–	–	0.20	3.1	0.001	3.6	0.03	–	–	–	16,234 ng/mL	30,776 ng/mL	1,199 ng/mL
